# Patent US11554373B2 (priority 2016, dated 2023)
# Counter-ions that a name gives are not always drawn.
# Experiments:
# THP-1 cells [1] = assay: THP-1 cell activation by flow cytometry (CCR5, CD11b, CD86); type: cell-based, human; design: CD86 expression (printed C86): dose or concentration left out as unconfirmed
# Description: THP-1 monocytes (ATCC, TIB-202) were cultured in T-75 flasks according to the protocol recommended by ATCC. […] THP-1 cells show a proclivity towards forming large aggregates of loosely joined cells. These clumps were broken down back into single cells through the addition of deoxyribonuclease 1 (DNase 1, dissolved in 0.85% NaCl in water) (Sigma-Aldrich, D4513) at a concentration of 0.1 mg/mL. When cells had reached their optimal density, they were harvested and pelleted via centrifugation at 150×g for 5 min, resuspended in multi-organ system medium (MOSM) and added to the systems at a physiologically relevant concentration of 250,000 cells/mL. THP-1 cell adhesion to the inside surfaces of the housings was minimized by passivating the inside surfaces with bovine serum albumin (BSA, 0.5 mg/mL dissolved in PBS). 10 uL of medium was removed from each system daily to determine the number of freely recirculating cells present. Initial THP-1 culture medium consisted of RPMI 1640 base medium (ThermoFisher, 11875135) with 10% fetal bovine serum (ThermoFisher, 16000044) and 1× GlutaMAX (ThermoFisher, 35050061).
# [2] = test system: IPSC derived cardiomyocytes; assay: Cardiac spontaneous beat frequency in 3-O/4-O systems; type: cell-based, human
# Excerpt: Custom patterned multielectrode arrays (cMEAs) were fabricated to simultaneously stimulate and record electrical activity of cardiomyocytes cultured on the surface (100 μm diameter electrodes, 1000 μm between electrodes). Before culturing, the surfaces were modified to promote cell adhesion in an unbroken “U” pattern that connected multiple electrodes, allowing conduction velocity of the cells to be recorded at different points (14 mm total path length). Patterned cMEAs were introduced to the housings during system assembly on day 0 of the experiment.
# Printed circuit boards (PCBs) and flexible elastomeric connectors (zebra connectors, FUJIPOLY, 1 mm wide×18.2 mm long×9 mm tall) were incorporated into each system to create an interface between the cMEA and a commercially available 60 electrode amplifier (MEA1060, Multichannel-systems). This amplifier was used to both record spontaneous and stimulated electrical activity of the cardiomyocytes. A stimulus generator (STG 1002, Multichannel Systems) was used to stimulate the cells (800 mV rectangular pulse, 0.5 Hz to 3.0 Hz in 0.25 Hz increments). The multichannel systems software suite was used to control both the amplifier and stimulator, and was used to record action potentials.
# Drug additions were performed on day 3 of the experiment, immediately after baseline recordings of spontaneous and stimulated cell activity were taken. Cell activity was recorded again 48 and 96 hours after drug exposure. Conduction velocity (CV), spontaneous beat frequency and minimum interspike interval (MIST) were extracted from the data using Clampfit (Axon Instruments).
# Spontaneous beat frequency was obtained from spontaneous recordings of cardiac activity 20 seconds in length. For each recording, the frequency was calculated as the number of measured action potentials divided by the length of time between the first and last action potential during the recording interval. […]
# CYP3A4 = CYP3A4 (Homo sapiens, UniProt P08684); assay: Liver cytochrome p450 activity, endpoint D7; type: cell-based; settings: 4-O systems, 50 uM amiodarone vs untreated controls
# Chain of CYP3A4 (P08684 whole entry, canonical isoform): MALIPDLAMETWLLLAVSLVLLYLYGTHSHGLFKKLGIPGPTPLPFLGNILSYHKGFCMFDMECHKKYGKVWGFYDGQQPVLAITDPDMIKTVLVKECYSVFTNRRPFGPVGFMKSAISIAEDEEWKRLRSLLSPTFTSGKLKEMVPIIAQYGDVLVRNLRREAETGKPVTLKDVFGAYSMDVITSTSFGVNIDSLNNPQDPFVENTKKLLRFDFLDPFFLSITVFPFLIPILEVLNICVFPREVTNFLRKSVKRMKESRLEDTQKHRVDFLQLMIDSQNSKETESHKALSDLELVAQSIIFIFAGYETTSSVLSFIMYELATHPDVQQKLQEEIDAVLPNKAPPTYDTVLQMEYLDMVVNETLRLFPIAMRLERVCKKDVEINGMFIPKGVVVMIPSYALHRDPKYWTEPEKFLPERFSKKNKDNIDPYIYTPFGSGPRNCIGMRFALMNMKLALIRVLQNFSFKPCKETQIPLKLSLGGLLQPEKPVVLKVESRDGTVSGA
# Description: (§1) Cytochrome p450 1A1 and 3A4 isoforms from the hepatic cultures were assessed with a luciferin based method in two reactions. Basal activities were compared to induced activities upon incubations with 10 nM TCDD (Sigma, 48599) and 20 μM Rifampicin (Sigma, R3501) for 48 h, prior to the analysis. At 7, 14, 21 and 28 DIV, cells were rinsed 3 times with 1×PBS and incubated with 1A1 specific substrate, Luciferin-CEE (120 μM) (Promega, V8752) in phenol red-free 1×DMEM (Thermo Fisher Scientific, A1443001) for 3 h at 37° C. The enzymatic product (D-Luciferin) of the first reaction was collected and stored at −80° C. until further analysis. […] Twenty minutes after incubation at room temperature in the dark, luminescence was measured using a Synergy HT plate reader with KC4 software. […] 3A4 samples were measured separately from 1A1 samples due to high differences in luminescence emission. Similarly, induced and uninduced samples were measured separately. Each plate was measured a minimum of 5 times to ensure the photomultiplier detector was stabilized, and the average of all readings was taken for the final RLU values. A regression line with the standards (0.5-500 nM diluted in 1×DMEM), subtracting intrinsic DMEM luminescence from values, was obtained for each analysis. […]
# liver tissue = assay: THP-1 infiltration into liver module by immunocytochemistry (CD11b, CD86); type: cell-based, human; settings: systems with recirculating THP macrophages, amiodarone, vs controls
# Description: At the end of each experiment, cardiac cMEAs and hepatocyte coverslips were fixed with 4% paraformaldehyde in 1×PBS for 5 minutes. Cells were rinsed twice with 1×PBS and Cells were permeabilized with a solution of 0.1% Triton X-100 in 1×PBS for 15 minutes then blocked with 5% donkey serum in 1×PBS for 20 minutes. Cells were then incubated overnight at 4° C. with primary antibody in blocking solution. Primary antibodies used were anti-CD14, anti-CD16, anti-CD69, anti-CD11b, anti-CD86, and anti-CCR5. Following three, five-minute washes with 1×PBS, cells were incubated for 2 hours at room temperature in the dark with a secondary antibody conjugated to Alexa-488 fluorophore, or Alexa-568 fluorophore. Following the secondary antibody incubation, surfaces were washed 3× in PBS and incubated with 3 mM 4′-6-Diamidino-2-Phenylindole (DAPI) in 1×PBS for 10 min, in the dark and at RT for nuclei staining. DAPI solution was removed and the cells were washed 3× with PBS. Finally, coverslips were mounted on glass slides using a Hard Set Mounting with DAPI (Vector laboratories, Inc.). Alternatively, MEAs were left in the final 1×PBS rinse and imaged using a water immersion lens.
# CYP2C9 = CYP2C9 (Homo sapiens, UniProt P11712); assay: Liver cytochrome p450 activity, endpoint D7; type: cell-based; settings: 4-O systems, 50 uM amiodarone vs untreated controls
# Chain of CYP2C9 (P11712 whole entry): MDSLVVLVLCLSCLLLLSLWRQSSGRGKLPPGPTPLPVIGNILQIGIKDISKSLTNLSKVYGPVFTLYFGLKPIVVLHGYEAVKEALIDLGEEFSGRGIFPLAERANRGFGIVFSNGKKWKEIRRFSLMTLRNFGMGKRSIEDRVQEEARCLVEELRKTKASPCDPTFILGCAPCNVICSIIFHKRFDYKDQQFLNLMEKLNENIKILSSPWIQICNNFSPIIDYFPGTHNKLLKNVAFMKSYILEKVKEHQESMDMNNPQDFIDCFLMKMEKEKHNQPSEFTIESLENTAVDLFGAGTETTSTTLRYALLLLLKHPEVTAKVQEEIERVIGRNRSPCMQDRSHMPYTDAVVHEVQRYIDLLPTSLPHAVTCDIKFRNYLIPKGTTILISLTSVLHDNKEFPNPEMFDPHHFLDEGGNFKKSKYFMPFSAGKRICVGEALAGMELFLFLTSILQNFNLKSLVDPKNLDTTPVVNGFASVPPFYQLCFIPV
# [3] = test system: IPSC derived cardiomyocytes; assay: Cardiac conduction velocity on patterned cMEA in 3-O/4-O systems; type: cell-based, human
# Description: (§2) A four-organ system (4-O) was developed to contain a liver compartment, recirculating THP-1 cells, and three separate bioMEMs devices to measure the cardiomyocytes' electrical and mechanical functionality, as well as the mechanical function of the skeletal muscle. Three organ systems (3-0) were also developed to serve as a monocyte-free control for the 4-O systems. […] Cardiac and skeletal muscle mechanical function was evaluated by seeding the cardiomyocytes and skeletal muscle onto their own respective custom arrays of microscale cantilevers. Contractile force of the cardiac and skeletal muscle was calculated from laser-based measurements of cantilever bending resulting from contractile muscle (Stancescu et al 2015). Cardiac electrical function was measured via a microelectrode array amplifier system by incorporating and patterning cardiomyocytes onto custom microelectrode arrays with chemical patterning to produce a defined conduction path along a series of surface embedded microelectrodes (Nataraj an et al 2011, Stancescu et al 2015). Electrical stimulation for skeletal muscle force was generated inside the system with housing-embedded electrodes for cantilevers. […]
# Custom patterned multielectrode arrays (cMEAs) were fabricated to simultaneously stimulate and record electrical activity of cardiomyocytes cultured on the surface (100 μm diameter electrodes, 1000 μm between electrodes). Before culturing, the surfaces were modified to promote cell adhesion in an unbroken “U” pattern that connected multiple electrodes, allowing conduction velocity of the cells to be recorded at different points (14 mm total path length). […]
# Drug additions were performed on day 3 of the experiment, immediately after baseline recordings of spontaneous and stimulated cell activity were taken. Cell activity was recorded again 48 and 96 hours after drug exposure. […]
# cardiac cells = assay: Endpoint viability (alamar blue) of cardiac chips; type: cell-based, human; settings: 50 uM; endpoint day 7
# Description: (§4) Cell viability was evaluated in one of three ways depending on the surface the cells were grown on. […] The viability of cardiac and skeletal muscle cells plated on BioMEMs devices was assessed using an alamar blue solution (Thermofisher, DAL1025). Surfaces were incubated in 500 μL of a 10% solution (v:v) of alamar blue in growth medium at 37° C., 5% CO2 for 24 hours. 100 μL of the solution was placed into a 96 well plate and read at fluorescence excitation wavelength 570 nm and emission at 590 nm using the BioTeK Synergy HT plate reader.
# cardiac tissue = assay: THP-1 cell infiltration into cardiac tissue (phase contrast, CellTracker Red); type: cell-based, human; settings: 4-O system dosed with amiodarone, after three days
# Description: THP-1 cells were collected in a 15 mL conical tube and centrifuged to a pellet at 300 g for 5 minutes. The cells were resuspended and counted and the volume adjusted to 1×10^6 cells/mL. Then cells were then incubated with Cell Tracker Red CMTPX Dye (ThermoFisher C34552) following the manufacturer's protocol. The dye loaded cells were then used for infiltration studies in 4-O systems as described.
# skeletal muscle cells = assay: Endpoint viability (alamar blue) of skeletal muscle chips; type: cell-based, human; settings: 50 uM; endpoint day 7
# Description: as §4
# skeletal muscle myotubes = assay: Skeletal muscle force on cantilevers in 3-O/4-O systems; type: cell-based, human; settings: 50 uM; up to four days after dose, with or without THP-1
# Description: as §2
# (§3) Cardiac and skeletal muscle contractions were measured using a cantilever deflection system that has been described previously (McAleer, 2014; Oleaga, 2016; Oleaga, 2017; Pirozzi, 2013). […]
# 3-O systems+THP-1 cells = assay: Cytokine release in multi-organ systems; type: cell-based, human; settings: 50 uM amiodarone; 7-day time course
# CYP1A = assay: Liver cytochrome p450 activity, endpoint D7; type: cell-based, human; settings: 4-O systems, 50 uM amiodarone vs untreated controls
# Description: as §1
# [4] = HPLC/MS determination of amiodarone remaining in system medium; type: in vitro ADME; settings: 24 hours post-dose
# Description: Drug addition to the 3-O and 4-O systems was performed on D3 post-assembly. On the day of addition, 3× concentrations of each drug in the serum-free, multi-organ system medium (MOSM) were prepared in advance. ⅓ of the media in each system was removed and replaced with an equal volume of the concentrated drug solution. This facilitated for rapid mixing and complete diffusion of the drugs in the systems without requiring a full media change. […] Lipopolysaccharide (LPS, Sigma-Aldrich, L2630) was dissolved in PBS 1× at a concentration of 1 μg/mL and interferon-γ (IFN-γ) (Sigma-Aldrich, 11040596001) was dissolved in DI water at a concentration of 100,000 units/mL. LPS and IFN-γ were administered as a single cocktail at final concentrations of 10 ng/mL and 100 units/mL, respectively.
# Medium samples collected from the systems were spiked with a tamoxifen internal standard (10 nM final measured concentration) and combined with acetonitrile at a 1:3 ratio to extract proteins. The mixtures were then centrifuged at 100×G for 5 minutes and supernatants were collected and diluted 1 to 51 in the initial mobile phase. […] Quantification and qualification ions for tamoxifen were 372.2→72.1 (28 eV CE) and 372.2→44 (48 eV), respectively. […]
# THP-1 cells [5] = assay: Viability of THP-1 cells treated directly; type: cell-based, human; settings: amiodarone treatment of THP-1 cells alone
# [6] = test system: IPSC derived cardiomyocytes; assay: Cardiac contractile force on cantilevers in 3-O/4-O systems; type: cell-based, human
# Description: as §2, §3
# [7] = amiodarone treatment of THP-1 cells alone
# [8] = recirculating THP-1 cells from 4-O & 4-O+Amiodarone systems, days 1, 3, 5, 7
# [9] = 50 uM acute, 4-O systems (with THP-1 cells)
# [10] = 50 uM, 4-O systems, D4 after dose
# [11] = 50 uM, without THP-1, vs untreated 3-O systems
# [12] = THP-1 culture dosed with 50 μM PMA (positive control)
smiles,measurement,setting,value
"CCCCc1oc2ccccc2c1C(=O)c1cc(I)c(OCCN(CC)CC)c(I)c1 [amiodarone, Amiodarone hydrochloride]",CCR5 expression,THP-1 cells [1]; [7],did not significantly alter
same,CD11b expression,THP-1 cells [1]; [7],did not significantly alter
same,CD86 expression,THP-1 cells [1]; [7],did not significantly alter
same,CCR5 expression,THP-1 cells [1]; [8],largely stable
same,CD11b expression,THP-1 cells [1]; [8],increased
same,CD86 expression,THP-1 cells [1]; [8],largely stable
same,decrease in cardiac beat frequency,[2]; [9],60%
same,beat frequency at D4,[2]; [10],recovery
same,reduction of cardiac beat frequency,[2]; [11],45%
same,CYP3A4 activity,CYP3A4,significantly reduced
same,CD11b and CD86 staining of liver cells (THP infiltration),liver tissue,increase
same,CYP2C9 activity,CYP2C9,not affected
same,decrease in cardiac conduction velocity,[3]; [9],50%
same,conduction velocity at D4,[3]; [10],recovery
same,reduction of cardiac conduction velocity,[3]; [11],20%
same,cardiac chip viability,cardiac cells,does not significantly reduce viability
same,THP-1 cell infiltration into cardiac tissue,cardiac tissue,visibly infiltrated
same,skeletal muscle chip viability,skeletal muscle cells,does not significantly reduce viability
same,effect on skeletal muscle force,skeletal muscle myotubes,no significant effect
same,IL-6 level,3-O systems+THP-1 cells,increased
same,IL-8 level,3-O systems+THP-1 cells,increased
same,MCP-1 level,3-O systems+THP-1 cells,increased
same,CYP1A activity,CYP1A,not affected
same,amiodarone mean concentration still present in the systems,"[4]; 50 μM dose, 3-O systems+THP-1 cells",1.41 µM
same,reduction of amiodarone in medium,[4]; from 50 μM,97%
same,THP-1 cell viability,THP-1 cells [5],did not significantly alter
same,decrease in cardiac force output,[6]; [9],80%
same,decrease in cardiac force output,"[6]; acute dose 50 uM, printed as 4-O systems treated vs untreated systems",50%
"CCCCCCCCCCCCCC(=O)O[C@@H]1[C@@H](C)[C@@]2(O)[C@@H](C=C(CO)C[C@]3(O)C(=O)C(C)=C[C@@H]23)[C@@H]2C(C)(C)[C@]12OC(C)=O [PMA, phorbol 12-myristate 13-acetate]",increase in CCR5 expression,THP-1 cells [1]; [12],8%
same,increase in CD11b expression,THP-1 cells [1]; [12],23%
same,CD86 expression (printed C86),THP-1 cells [1]; THP-1 culture dosed with PMA (positive control),relatively unchanged
